According to US20220296618A1, “ANTI-INFLAMMATORY COMPOUNDS FOR USE IN THE TREATMENT OF DERMAL DISORDERS” (COUNCIL OF SCIENTIFIC & INDUSTRIAL RESEARCH, priority 2019, published 2022):

Assays:
[1] = system: wound on the dorsal skin of diabetic (db/db) mice; assay: Diabetic wound healing (1 cm^2 punch biopsy wound) in db/db mice, topical cream; format: in vivo; conditions: for Wound healing observed animals in a group on day 10 / % of Wound healing: topical once daily; for Wound healing observed animals in a group on day 10: 5 animals in the group; for % of Wound healing: day 10
Source text: Method: In this study, mice of db/db strain (age: 13-14 weeks) were used as this strain is more analogous to diabetic wound healing in humans. A 1 cm^2 wound was made using a punch biopsy on the dorsal side of the db/db mice under local anesthetic conditions. The animals were divided into 5 groups with 5 animals in each group as follows: • Group 1 (n=5): treated with vehicle alone (Diabetic Control Group). • Group 2 (n=5) treated with Compound 2 (2.5%) prepared in the vehicle. • Group 3 (n=5): treated with Compound 1 (0.625%) prepared in the vehicle. • Group 4 (n=5) treated with Compound 1 (1.25%) prepared in the vehicle. • Group 5 (n=5) treated with Compound 1 (2.5%) prepared in the vehicle. Three concentrations of Compound 1, i.e. 0.625%, 1.25%, and 2.5%, were tested for this study. The topical preparations were applied on the wound once daily for 12 days. Images of the wound area were visualized, and measurements of the wound area were recorded on each day of the study.

[2] = system: wound on the dorsal skin of non-diabetic C57 mice; assay: Wound healing (1 cm^2 punch biopsy wound) in non-diabetic C57BL/6j mice, topical cream; format: in vivo; conditions: topical once daily for 12 days; for Wound healing observed animals in a group: 5 animals in the group
Source text: Method: In this study, C57BL/6j mice strain (age: 12 weeks) were used for studying the wound healing process. A 1 cm^2 wound was made using a punch biopsy on the dorsal side of the C57 mice. The animals were divided into 5 groups consisting of 5 animals in each group as follows: • Group 6 (n=5): treated with vehicle alone (Non-Diabetic Control Group). • Group 7 (n=5) treated with Compound 2 (2.5%) prepared in the vehicle. • Group 8 (n=5): treated with Compound 1 (0.625%) prepared in the vehicle. • Group 9 (n=5) treated with Compound 1 (1.25%) prepared in the vehicle. • Group 10 (n=5) treated with Compound 1 (2.5%) prepared in the vehicle. Three concentrations of Compound 1, i.e. 0.625%, 1.25%, and 2.5%, prepared in the vehicle were tested in this study. The topical preparations were applied on the wound once daily for 12 days starting 12 hours after the wound was created. Images of the wound area were visualized, and measurements of area were recorded on each day of the study.

[3] = system: surgical incision wound on rabbit skin; assay: Incisional wound healing in rabbit, topical cream; format: in vivo, New Zealand rabbits; conditions: 2.5% in vehicle
Source text: In this study, New Zealand rabbits weighing between 2.0-2.5 kg body weight were used and divided into two groups;
Control Group: Treated with the vehicle alone.
Test Group: Treated with Compound 1 (2.5%) prepared in the vehicle.
Para vertebral straight incisions of 2 cm length each were made through the entire thickness of the skin on either side of the vertebral column with the help of a sharp scalpel. After complete haemostasis, the wound was closed by means of interrupted sutures placed at equidistance points about 1 cm apart (See FIG. 6). Animals were treated once daily from day 0 to day 14 post-wounding day. Images were taken daily during the study period. Sutures were removed on day 7 and observed for wound closure.

[4] = system: surgical incisional wound in diabetic (db/db) mice; assay: Incisional wound healing in diabetic (db/db) mice, with or without SIRT1 inhibitor EX-527; format: in vivo; conditions: Group 12, 0.625% in vehicle, topical once daily for 7 days
Source text: In this study, mice of db/db strain (age: 12 weeks) were used. The animals were divided into four groups: • Group 11: Mice control treated with the vehicle alone. • Group 12 Mice treated with Compound 1 (0.625%) prepared in the vehicle. • Group 13 Mice treated with Compound 1 (0.625%) and EX-527 (0.025%) in the • vehicle. • Group 14: Mice treated with EX-527 (0.025%) in the vehicle.
Para vertebral straight incisions of 2 cm length and 1 mm depth each were made through the entire thickness of the skin, on either side of the vertebral column with the help of a sharp scalpel. After complete haemostasis, the wound was closed by means of interrupted sutures placed at equidistance points about 1 cm apart (See FIG. 8) All the groups were treated once daily for 7 days with the respective test and control preparations. Images of the wound area were taken on each day of the study by photographs and Doppler imaging. The wound area was measured using a transparent tracing sheet before and during the treatment to measure the wound closure at every 4 day interval.

mice skin tissues = assay: Tensile strength of skin tissues on day 8 after treatment for 7 days; format: in vivo
Description: Method: Fresh mice skin was treated once daily and stretched between the two ends of the tensile machine with a load of 100 kg with a stretching speed of 5 mm/min. (FIG. 9).

[5] = system: IMQ-induced psoriasis in Balb/c mice; assay: IMQ-induced psoriasis in Balb/c mice, PASI scoring; format: in vivo; conditions: topical 12 h after IMQ, day 1 to 6
Description: (§1) The effect of topical administration of Compound 1 for the treatment of psoriasis was tested in this animal study. In this study, typical features of psoriasis, namely erythema, scaling, and skin thickness, were induced by the application of 5% w/w imiquimod (IMQ) cream on the dorsal skin of Balb/c mice over a period of 6 consecutive days. Animals that developed psoriasis-like symptoms were used for studying the efficacy of the Compound 1 prepared in a vehicle (as described above). In this study, male Balb/c mice (aged 6 to 8 weeks) were used. The animals were divided into 8 groups consisting of 10 animals in each group as follows:
Animals in this group were topically treated with 62.5 mg of commercially available imiquimod cream (5%) on the shaved back for 6 consecutive days (day 1 to 6 of study) at a specific time in the morning. This negative control group represents the typical psoriatic model induced by imiquimod 5% (IMQ). […]
Psoriatic area and severity index (PASI) scoring was analyzed to determine the efficacy of compositions containing a Compound 1 with appropriate controls as part of the study. The severity of inflammation of the skin was evaluated by an objective scoring system based on the clinical PASI scores. Erythema (0-4) and scaling (0-4) were scored independently where, 0-none; 1-slight; 2-moderate; 3-marked; 4-very marked. […]

IL-23 = IL-23 level in skin homogenate by ELISA, IMQ-induced psoriasis model; format: in vivo, Balb/c mice; conditions: day 7, ELISA
Description: as §1
An IMQ-induced psoriasis model reproduces biochemical and histopathological parameters characteristic of human psoriatic lesions. Topical application of the IMQ cream increased levels of cytokines including IL-23 and IL-17 in the treated skin tissues. The animals were euthanized on day 7. Spleen, liver and skin tissues were collected from all the animals Spleen and liver tissues were weighed. IL-17 and IL-23 levels were measured by ELISA using a commercially available kit. The skin homogenates obtained from mice of different groups were analyzed using ELISA for quantification of IL-17 and IL-23 levels as the selected interleukins are the typical inflammatory markers of psoriasis.

[6] = system: IMQ-induced psoriasis in Balb/c mice; assay: Histopathology (H&E staining) of skin, IMQ-induced psoriasis model; format: in vivo; conditions: 0.625% preparation; comparable to clobetasol propionate cream
Description: As a part of the efficacy study, a histopathology study was performed to study the morphological observations of the skin of mice representative of the different treatment groups. At the end of experiment, skin samples of mice from each group were fixed in 4% paraformaldehyde and embedded in paraffin. From each paraffin block, 4 μm thick sections were made and mounted on the glass slides. The sections were stained by haematoxylin and eosin and images were taken and evaluated.

[7] = system: hepatic enzyme markers ALT and AST; conditions: intraperitoneally prior to treatment with t-butyl hydroperoxide; cited from earlier work

O=c1cc(CCCCCCCC[P+](c2ccccc2)(c2ccccc2)c2ccccc2)c2cc(O)c(O)cc2o1.[Br-] [Compound 1]
Wound healing observed animals in a group on day 10 ([1]; 0.625% in vehicle cream): 5 | % of Wound healing ([1]; 0.625% in vehicle cream): 100% | Wound healing observed animals in a group on day 10 ([1]; 1.25% in vehicle cream): 4 | % of Wound healing ([1]; 1.25% in vehicle cream): 90% | Wound healing observed animals in a group on day 10 ([1]; 2.5% in vehicle cream): 4 | % of Wound healing ([1]; 2.5% in vehicle cream): 90% | Day of complete closure of the wound ([1]; Groups 3-5, 0.625%, 1.25% and 2.5% in vehicle, topical): ≤ 10 days | % of Wound healing ([2]; 0.625% in vehicle cream): 90% | Wound healing observed animals in a group ([2]; 0.625% in vehicle cream): 4 | % of Wound healing ([2]; 1.25% in vehicle cream): 90% | Wound healing observed animals in a group ([2]; 1.25% in vehicle cream): 4 | % of Wound healing ([2]; 2.5% in vehicle cream): 100% | Wound healing observed animals in a group ([2]; 2.5% in vehicle cream): 5 | Time of faster surgical wound healing versus Control Group ([3]; topical once daily day 0 to day 14): ≤ 8 days | Surgical scar ([3]; topical once daily, compared to Control Group): No surgical scar was observed | Time to complete healing of the incisional wound [4]: ≤ 7 days | Tensile strength (N) (mice skin tissues; 0.625%): 55.33 ± 1.7 N | PASI scores over the treatment period ([5]; 0.313% in vehicle): declines in PASI scores | PASI scores over the treatment period ([5]; 0.625% in vehicle): better declines in PASI scores | IL-23 levels in skin tissue compared to the negative control (IL-23; 0.313% in vehicle): decline in IL-23 levels | IL-23 levels in skin tissue compared to the negative control (IL-23; 0.625% in vehicle): decline in IL-23 levels | Histopathological amelioration of IMQ-induced psoriasis (skin and ear) [6]: ameliorated more

O=c1ccc2cc(O)c(O)cc2o1 [Compound 2, 6,7-dihydroxycoumarin, reference compound]
Wound healing observed animals in a group on day 10 ([1]; 2.5% in vehicle cream): 0 | % of Wound healing ([1]; 2.5% in vehicle cream): 0% | Day of wound closure ([1]; Group 2, 2.5% in vehicle, topical): ≤ 26 days | % of Wound healing ([2]; 2.5% in vehicle cream): 90% | Wound healing observed animals in a group ([2]; 2.5% in vehicle cream): 4 | Serum levels of hepatic enzyme markers ALT and AST [7]: lower serum levels

NC(=O)C1CCCc2c1[nH]c1ccc(Cl)cc21 (centres unmarked) [EX527, 6-chloro-2,3,4,9-tetrahydro-1H-carbazole-1-carboxamide, reference compound]
Tensile strength (N) (mice skin tissues; 0.025%): 6.03 ± 2.51 N
